Laboratory results: ChEMBL document CHEMBL5046253, “Synthesis and bioevaluation of diaryl urea derivatives as potential antitumor agents for the treatment of human colorectal cancer” (Eur J Med Chem, 2022)

Key:
Cytochrome P450 1A2 = Cytochrome P450 1A2 (Homo sapiens, UniProt P05177); experiment: Inhibition of CYP1A2 (unknown origin); type: ADME
[1] = Selectivity index, ratio of IC50 for antiproliferative activity against human L02 cells to IC50 for antiproliferative activity against human HepG2 cells; type: toxicity, cell-based; conditions: L02 cells versus HepG2 cells, read-out: Ratio IC50
MCF7 = experiment: Antiproliferative activity against human MCF7 cells assessed as reduction in cell viability incubated for 48 hrs by MTT assay; type: functional, cell-based; conditions: MCF7, 48 h
L02 = experiment: Antiproliferative activity against human L02 cells assessed as reduction in cell viability incubated for 48 hrs by MTT assay; type: cell-based; conditions: L02, 48 h
HCT-116 [2] = experiment: Induction of apoptosis in human HCT-116 cells assessed as viable cells at 5 uM incubated for 24 hrs by annexin V FITC/propidium iodide staining based flow cytometry (reference value: 81.2 %); type: functional; conditions: read-out: Activity
HCT-116 [3] = experiment: Induction of apoptosis in human HCT-116 cells assessed as necrotic cells at 10 uM incubated for 24 hrs by annexin V FITC/propidium iodide staining based flow cytometry (reference value: 0.9 %); type: functional
Spleen = experiment: Toxicity in BALB/c mouse assessed as effect on spleen by H and E staining based histological analysis; type: tissue-based; conditions: in vivo
HCT-116 [4] = experiment: Induction of apoptosis in human HCT-116 cells assessed as viable cells at 10 uM incubated for 24 hrs by annexin V FITC/propidium iodide staining based flow cytometry (reference value: 81.2 %); type: functional; conditions: read-out: Activity
HCT-116 [5] = experiment: Induction of apoptosis in human HCT-116 cells assessed as late apoptotic cells at 2.5 uM incubated for 24 hrs by annexin V FITC/propidium iodide staining based flow cytometry (reference value: 6.8 %); type: functional
HCT-116 [6] = experiment: Induction of apoptosis in human HCT-116 cells assessed as late apoptotic cells at 5 uM incubated for 24 hrs by annexin V FITC/propidium iodide staining based flow cytometry (reference value: 6.8 %); type: functional
Cytochrome P450 2C19 = Cytochrome P450 2C19 (Homo sapiens, UniProt P33261); experiment: Inhibition of CYP2C19 (unknown origin); type: ADME
Chain of Cytochrome P450 2C19 (P33261 whole entry): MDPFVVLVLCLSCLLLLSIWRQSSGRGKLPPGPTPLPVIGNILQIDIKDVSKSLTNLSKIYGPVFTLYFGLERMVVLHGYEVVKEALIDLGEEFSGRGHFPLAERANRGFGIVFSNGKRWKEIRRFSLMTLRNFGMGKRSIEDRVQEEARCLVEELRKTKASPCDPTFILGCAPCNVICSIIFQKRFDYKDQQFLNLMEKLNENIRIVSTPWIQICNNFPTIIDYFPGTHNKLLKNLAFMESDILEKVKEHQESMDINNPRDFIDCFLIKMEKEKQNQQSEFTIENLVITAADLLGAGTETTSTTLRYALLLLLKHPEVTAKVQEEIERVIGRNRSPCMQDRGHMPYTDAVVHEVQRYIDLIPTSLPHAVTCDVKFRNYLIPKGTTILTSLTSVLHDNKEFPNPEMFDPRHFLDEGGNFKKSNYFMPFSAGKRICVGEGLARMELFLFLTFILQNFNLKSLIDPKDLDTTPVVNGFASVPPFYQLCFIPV

HCT-116 [7] = experiment: Induction of apoptosis in human HCT-116 cells assessed as necrotic cells at 2.5 uM incubated for 24 hrs by annexin V FITC/propidium iodide staining based flow cytometry (reference value: 0.9 %); type: functional
HCT-116 [8] = experiment: Induction of apoptosis in human HCT-116 cells assessed as early apoptotic cells at 2.5 uM incubated for 24 hrs by annexin V FITC/propidium iodide staining based flow cytometry (reference value: 11.1 %); type: functional
CNE-2 = experiment: Antiproliferative activity against human CNE-2 cells assessed as reduction in cell viability incubated for 48 hrs by MTT assay; type: functional, cell-based; conditions: CNE-2, 48 h
HCT-116 [9] = experiment: Inhibition of cell migration in human HCT-116 cells at 1.5 uM measured after 24 hrs by wound healing assay (reference value: 31.16 %); type: functional
[10] = biological target: Phosphatidylinositol 4,5-bisphosphate 3-kinase catalytic subunit gamma isoform (Homo sapiens, UniProt P48736); experiment: Inhibition of PI3Kgamma (unknown origin) using PIP2 as substrate in presence of ATP incubated for 60 mins by ADP-glo based luminescence assay
Chain of Phosphatidylinositol 4,5-bisphosphate 3-kinase catalytic subunit gamma isoform (P48736 whole entry, canonical isoform): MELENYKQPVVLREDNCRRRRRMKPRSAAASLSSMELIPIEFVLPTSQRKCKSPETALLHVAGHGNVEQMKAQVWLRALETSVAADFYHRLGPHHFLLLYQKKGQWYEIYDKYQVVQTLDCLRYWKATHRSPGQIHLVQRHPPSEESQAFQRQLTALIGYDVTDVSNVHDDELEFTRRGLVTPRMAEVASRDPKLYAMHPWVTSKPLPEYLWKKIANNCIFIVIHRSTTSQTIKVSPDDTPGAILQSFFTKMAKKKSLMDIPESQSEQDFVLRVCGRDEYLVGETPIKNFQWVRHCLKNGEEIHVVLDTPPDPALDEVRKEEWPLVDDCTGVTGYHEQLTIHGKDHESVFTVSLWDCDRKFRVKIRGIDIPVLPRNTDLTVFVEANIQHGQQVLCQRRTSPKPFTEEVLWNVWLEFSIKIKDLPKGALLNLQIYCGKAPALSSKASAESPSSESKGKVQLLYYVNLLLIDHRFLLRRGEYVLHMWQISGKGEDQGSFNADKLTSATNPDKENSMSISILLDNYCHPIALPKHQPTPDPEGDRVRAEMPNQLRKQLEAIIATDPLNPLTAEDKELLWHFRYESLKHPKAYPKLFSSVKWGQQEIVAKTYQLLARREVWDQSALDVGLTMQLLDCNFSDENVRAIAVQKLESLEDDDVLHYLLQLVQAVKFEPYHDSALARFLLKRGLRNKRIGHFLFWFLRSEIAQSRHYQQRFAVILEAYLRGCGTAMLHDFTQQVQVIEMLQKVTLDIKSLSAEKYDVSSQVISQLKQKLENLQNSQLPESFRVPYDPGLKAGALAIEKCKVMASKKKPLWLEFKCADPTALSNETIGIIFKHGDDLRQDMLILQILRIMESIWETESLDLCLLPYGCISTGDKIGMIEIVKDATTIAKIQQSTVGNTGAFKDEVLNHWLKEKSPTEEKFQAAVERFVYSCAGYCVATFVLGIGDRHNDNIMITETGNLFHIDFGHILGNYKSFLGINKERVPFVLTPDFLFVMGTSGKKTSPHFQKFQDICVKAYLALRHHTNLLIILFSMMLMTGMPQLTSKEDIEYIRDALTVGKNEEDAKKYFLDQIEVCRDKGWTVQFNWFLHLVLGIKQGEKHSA

HCT-116 [11] = experiment: Inhibition of cell migration in human HCT-116 cells at 6 uM measured after 24 hrs by wound healing assay (reference value: 31.16 %); type: functional
HepG2 = experiment: Antiproliferative activity against human HepG2 cells assessed as reduction in cell viability incubated for 48 hrs by MTT assay; type: functional, cell-based; conditions: HepG2, 48 h
[12] = AUC (0 to infinity) in Sprague-Dawley rat at 20 mg/kg, iv by LC-MS/MS analysis; type: ADME, organism-based; set-up: route intravenous, time infinity, dose 20 mg/kg; conditions: in vivo
Heart = experiment: Toxicity in BALB/c mouse assessed as effect on heart by H and E staining based histological analysis; type: tissue-based; conditions: in vivo
[13] = biological target: Serine/threonine-protein kinase mTOR (Homo sapiens, UniProt P42345); experiment: Inhibition of mTOR (unknown origin) using U-Light-4E-BP1 peptide as a substrate in presence of ATP incubated for 45 mins by Lance ultra assay
[14] = Volume of distribution at steady state in Sprague-Dawley rat at 20 mg/kg, iv by LC-MS/MS analysis; type: ADME, organism-based; conditions: in vivo
Mus musculus = experiment: Hyperglycemic activity in ICR mouse model assessed as effect on blood glucose level at 20 mg/kg, iv by glucometer; type: toxicity, organism-based; conditions: in vivo
A-431 = experiment: Antiproliferative activity against human A431 cells harboring wild type EGFR mutant assessed as reduction in cell viability incubated for 72 hrs by celltiter-glo assay; type: functional, cell-based; conditions: A-431, 72 h
[15] = Stability in Sprague-Dawley rat plasma; type: ADME, cell-free
MDA-MB-231 = experiment: Antiproliferative activity against human MDA-MB-231 cells assessed as reduction in cell viability incubated for 48 hrs by MTT assay; type: functional, cell-based; conditions: MDA-MB-231, 48 h
Cytochrome P450 2C9 = Cytochrome P450 2C9 (Homo sapiens, UniProt P11712); experiment: Inhibition of CYP2C9 (unknown origin); type: ADME
Chain of Cytochrome P450 2C9 (P11712 whole entry): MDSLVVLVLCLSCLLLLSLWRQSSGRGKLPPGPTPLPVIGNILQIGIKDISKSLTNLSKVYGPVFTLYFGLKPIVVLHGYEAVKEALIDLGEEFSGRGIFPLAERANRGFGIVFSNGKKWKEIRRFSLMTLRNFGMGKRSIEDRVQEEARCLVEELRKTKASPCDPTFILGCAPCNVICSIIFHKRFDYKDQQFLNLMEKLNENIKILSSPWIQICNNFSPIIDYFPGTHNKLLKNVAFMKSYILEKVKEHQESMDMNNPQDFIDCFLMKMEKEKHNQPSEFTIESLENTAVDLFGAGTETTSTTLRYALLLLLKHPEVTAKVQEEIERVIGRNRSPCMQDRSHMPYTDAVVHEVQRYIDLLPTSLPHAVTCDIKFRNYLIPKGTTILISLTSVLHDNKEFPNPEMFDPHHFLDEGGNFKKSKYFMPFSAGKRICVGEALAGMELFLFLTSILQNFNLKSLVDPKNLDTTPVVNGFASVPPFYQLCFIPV

[16] = MRT in Sprague-Dawley rat at 20 mg/kg, iv by LC-MS/MS analysis; type: ADME, organism-based; conditions: in vivo
HCT-116 [17] = experiment: Induction of apoptosis in human HCT-116 cells assessed as necrotic cells at 5 uM incubated for 24 hrs by annexin V FITC/propidium iodide staining based flow cytometry (reference value: 0.9 %); type: functional
[18] = Metabolic stability in Sprague-Dawley rat liver microsome; type: ADME; conditions: microsomes

Chain of Cytochrome P450 1A2 (P05177 whole entry): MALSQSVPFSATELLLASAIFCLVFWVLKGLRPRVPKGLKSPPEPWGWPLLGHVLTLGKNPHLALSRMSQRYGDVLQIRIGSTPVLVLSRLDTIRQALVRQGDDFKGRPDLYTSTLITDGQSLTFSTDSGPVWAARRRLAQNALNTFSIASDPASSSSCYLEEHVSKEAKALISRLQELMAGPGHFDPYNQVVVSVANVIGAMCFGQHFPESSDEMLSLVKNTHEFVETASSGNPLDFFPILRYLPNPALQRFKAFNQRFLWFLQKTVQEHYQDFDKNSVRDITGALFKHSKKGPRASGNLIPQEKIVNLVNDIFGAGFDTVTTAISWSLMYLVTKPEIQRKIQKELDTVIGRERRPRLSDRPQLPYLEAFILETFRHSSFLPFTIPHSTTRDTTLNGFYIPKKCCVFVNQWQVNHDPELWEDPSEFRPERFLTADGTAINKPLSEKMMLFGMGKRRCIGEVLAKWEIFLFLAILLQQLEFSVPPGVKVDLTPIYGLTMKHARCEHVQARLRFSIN

Structure (SMILES): NC(=O)[C@@H]1CCCN1C(=O)c1ccc(NC(=O)Nc2ccc(-c3nc(N4CCOCC4)nc(N4CCOCC4)n3)cc2)cc1
- IC50 (Cytochrome P450 1A2): > 50000 nM
- selectivity ratio [1]: 6.6
- IC50 (MCF7): 2220 nM
- IC50 (L02): > 100000 nM
- viability at 5 µM (HCT-116 [2]): 75.2%
- Activity (HCT-116 [3]): 1.7%
- Activity (Spleen): Non-Toxic
- viability at 10 µM (HCT-116 [4]): 63.1%
- Activity (HCT-116 [5]): 20.6%
- Activity (HCT-116 [6]): 9.71%
- IC50 (Cytochrome P450 2C19): > 50000 nM
- Activity (HCT-116 [7]): 2.2%
- Activity (HCT-116 [8]): 18.5%
- IC50 (CNE-2): 70 nM
- inhibition at 1.5 µM (HCT-116 [9]): 12.2%
- IC50 [10]: 8.7 nM
- inhibition at 6 µM (HCT-116 [11]): 6.4%
- IC50 (HepG2): 15100 nM
- AUC(0-inf) [12]: 30600 ng·h/mL
- Activity (Heart): Non-Toxic
- IC50 [13]: 3.3 nM
- Vdss [14]: 17.9 L/kg
- Activity (Mus musculus): Non-Toxic
- IC50 (A-431): 218 nM
- Stability [15]: Stable
- IC50 (MDA-MB-231): 6480 nM
- IC50 (Cytochrome P450 2C9): > 50000 nM
- MRT [16]: 10.4 h
- Activity (HCT-116 [17]): 1.79%
- Stability [18]: Stable
